These results are taken from patent publication US5110976A, “Insecticidal composition comprising more than one active ingredient” (priority 1985, dated 1992).

For orientation: mortality means the share of the test organisms that died.

Series [1] relates to Phaedon cochleariae. The conditions noted are these: cited from earlier work.
Series [2] relates to Musca domestica. The settings on record: cited from earlier work.
Series [3] concerns Hyphantria cunea. Description: Topical test on fall webworm (Table 18). The class given is in vivo, fall wetworm (Hyphantria cunea), L7-L8 larvae. The protocol:
The active ingredients are dissolved in 2-ethoxy-ethanol and the solutions are applied in the form of 0.2 μl droplets onto the back of fall wetworm (Hyphantria cunea) of L7 -L8 larvae stage. The treated worms are placed on strawberry leaves in Petri-dishes. The test is carried out by using […], 2 parallels and 10 insects for each dose. The killed worms are counted after 24 hours and the percental mortality rate is calculated.

Series [4] deals with Leptinotarsa decemlineata. Description: Topical test on potato beetle (Table 6). The settings on record: 24 h. The class given is in vivo, imagos. Here is the method:
The active ingredients are dissolved in 2-ethoxyethanol and […] of the solutions are applied onto the abdominal sterna of potato beetle (Leptinotarsa decemlineata) imagos. The treatments are carried out by using two parallels and 10 insects for each dose. […]

Series [5] concerns L. decemlineata. Description: 5 EC formulation sprayed on glass plates (Table 9). In kind it is in vivo, Colorado beetle (L. decemlineata), imagos. The conditions noted are these: 48 hours. Here is the method: (§1) From a 5 EC formulation according to Example 17 50-, 100-, 200-, 400-, 800- and 1600-fold diluted emulsions are prepared by diluting with water. 0.5 ml of the emulsions are sprayed onto glass plates whereupon after drying 10 Colorado beetles (L. decemlineata) imagos are placed on each glass plate and the insects are covered. The tests are carried out with 6 doses by carrying out 3 parallels for each dose. The killed insects are counted after 48 hours and the percental mortality rate is calculated.

In series [6] the test system is Acanthoscelides obtectus. Description: 5 EC formulation, insecticidal effect on bean weevil (Table 10). In kind it is in vivo, bean weevil (Acanthoscelides obtectus), imagos. The settings on record: 24 hours. Here is the method: as §1
The insecticidal effect is tested on been weevil (Acanthoscelides obtectus) imagos. The killed insects are counted after 24 hours and the percental mortality rate is calculated.

For series [7], the system named is Hyphantria cunea. Briefly: Topical test on fall webworm (Table 8). The conditions noted are these: 24 h. The class given is in vivo, L7-L8 larvae. The protocol: The active ingredients are dissolved in 2-ethoxyethanol and the solutions are applied in the form of 0.2 μl droplets onto the back of fall webworm (Hyphantria cunea) of L7 -L8 larvae stage. The treated worms are placed on strawberry leaves in Petri-dishes. The test is carried out by using 5 doses; 2 parallels and 10 insects for each dose.

The subject of series [8] is L. decemlineata. Briefly: 5 EC formulations sprayed on glass plates (Table 20). In kind it is in vivo, imagos. The conditions noted are these: 5 EC formulation, 48 hours. Here is the method: (§2) The 5 EC formulations prepared according to Example 42 are diluted 50x, 100x, 200x, 400x, 800x and 1600x with water and 0.5 ml doses are sprayed onto glass plates. After drying 10 L. decemlineata imagos are placed on each glass plate and the insects are covered with Petri-dishes. The tests are carried out by using 6 doses and 3 parallels for each dose. The killed insects are counted after 48 hours.

For series [9], the system named is Tetranychus urticae. Briefly: Potter Tower spray on mite-infested leaves (Table 19). The class given is in vivo, mites (Tetranychus urticae). The conditions noted are these: mortality after 24 hours; 1440 min. Here is the method:
Leaves already infested with mites (Tetranychus urticae) were sprayed under Potter Tower. Mortality after 24 hours on the treated leaves was compared with the control.

For series [10], the system named is Colorado potato beetle. Description: Topical test on Colorado potato beetle (Table 14). The class given is in vivo, Colorado potato beetle (Leptinotersa decemlineata), imago. Here is the method:
In Table 14 the activity on Colorado potato beetle is shown.
The test materials are dissolved in 2-ethoxyethanol (Cellosolve). One 0.3 μl drop of the solution is applied to the abdominal sterna of the imago. The treatment is carried out by using 2 parallels and 10 insects for each dose. […]

The subject of series [11] is Acanthoscelides obtectus. Description: 5 EC formulations sprayed on glass plates (Table 21). In kind it is in vivo, bean weevil (Acanthoscelides obtectus), imagos. The conditions noted are these: 5 EC formulation, 24 hours, 1440 min. The protocol: as §2
Glass plates are sprayed with 5 EC formulations prepared according to Example 42 in an analogous manner to Example 52. After drying 10 bean weevil (Acanthoscelides obtectus) imagos are placed on each plate and the insects are covered with Petri-dishes. The killed insects are counted after 24 hours. The test is carried out with 6 doses by using 3 parallels for each dose.

Where [12] appears, read: mixture activity lower than the calculated value.

For `CC1(C)[C@H](C=C(Cl)Cl)[C@H]1C(=O)OC(C#N)c1cccc(Oc2ccccc2)c1` (mixture of isomers) [mixture of both tested isomers], the rate of antagonism in series [1] (setting [12]) was 1.46; in [2] (setting [12]) it was 1.42.

`CC1(C)[C@H](C=C(Cl)Cl)[C@H]1C(=O)O[C@@H](C#N)c1cccc(Oc2ccccc2)c1` [1RtransR]: the results for the “activity related to bioresmetrine (100)” value in series [1] (bioresmetrine = 100) and in [2] (bioresmetrine = 100) were 110 and 81, respectively.

As for `CC1(C)C(C=C(Cl)Cl)C1C(=O)OC(C#N)c1cccc(Oc2ccccc2)c1` (centres unmarked) [cypermethrin], the “24 hours' mortality” value in [3] (0.023 (μg/disc), 1440 min) is 0%; in [3] (0.047 (μg/disc), 1440 min), 10%; in series [3] (0.094 (μg/disc), 1440 min), 25%; in series [3] (0.188 (μg/disc), 1440 min), 50%; in series [3] (0.375 (μg/disc)), 75%. For the same compound, the mortality at 0.05 µg/insect in series [4] (0.05 μg/insect) amounted to 0%. The mortality at 0.1 µg/insect in series [4] (0.10 μg/insect) was 20%. In series [4] (0.20 μg/insect), this compound displayed a mortality at 0.2 µg/insect of 45%. The same compound yielded a mortality at 0.4 µg/insect in series [4] (0.40 μg/insect) of 75%. The Mortality % is listed as 83% in series [5] (dilution 50x); 67% in [5] (dilution 100x); 50% in series [5] (dilution 200x); 33% in [5] (dilution 400x); 17% in series [5] (dilution 800x); 0% in series [5] (dilution 1600x). Also, the Mortality % came out at 60% in series [6] (dilution 50x); 43% in series [6] (dilution 100x); 20% in [6] (dilution 200x); 10% in series [6] (dilution 400x); 3% in series [6] (dilution 800x); 0% in series [6] (dilution 1600x). Also, the Mortality % worked out at 83% in [8] (dilution 50x, 2880 min); 67% in [8] (dilution 100x, 2880 min); 50% in series [8] (dilution 200x, 2880 min); 33% in series [8] (dilution 400x, 2880 min); 17% in series [8] (dilution 800x, 2880 min); 0% in series [8] (dilution 1600x). In addition, the Mortality % in series [11] (dilution 50x) was determined as 60%; in series [11] (dilution 100x) it was 45%; in series [11] (dilution 200x), 20%; in [11] (dilution 400x), 10%; in series [11] (dilution 800x), 3%; in series [11] (dilution 1600x), 0%. Further, in series [7] (0.023 μg/larvae), the mortality at 0.023 µg/larva was determined as 0%. This compound came in with a mortality at 0.047 µg/larva in series [7] (0.047 μg/larvae) of 0%. In series [7] (0.094 μg/larvae), the mortality at 0.094 µg/larva was determined as 25%. Also, in series [7] (0.188 μg/larvae), the mortality at 0.188 µg/larva stood at 50%. In series [7] (0.375 μg/larvae), this compound gave a mortality at 0.375 µg/larva of 75%. Besides, the “approx. LD50” value in [9] is recorded as ~0.120 ppm. For the same compound, the “24 hours' mortality %” value in series [10] (0.05 μg/beetle) is listed as 0%; in series [10] (0.10 μg/beetle), 20%; in series [10] (0.20 μg/beetle), 45%; in series [10] (0.40 μg/beetle), 75%.
